Measurements: paper PMC10508264, “Exploring the antioxidant, antimicrobial, cytotoxic and biothermodynamic properties of novel morpholine derivative bioactive Mn(II), Co(II) and Ni(II) complexes – combined experimental and theoretical measurements towards DNA/BSA/SARS-CoV-2 3CL^Pro” (RSC Medicinal Chemistry, 2023)

Columns and labels:
[1] = biological target: T1, BSA (Bos taurus, UniProt P02769); test: BSA fluorescence quenching titration; type: binding, bovine; details: for Gibb's free energy change (SV method II), BSA: T = 298 K; for Kq (SV method I), BSA: τ0 = 10^−8 s; for P, ratio of fluorescence quantum efficiency, BSA: F/F0 vs 1/[BSA]
Procedure: Titrations were performed for all tested compounds (1–200 μM) with pre-incubated EB-bound DNA and the intensity variations between 510 nm and 610 nm were carefully monitored in the presence and absence of DNA (200 μM) during the initial emission and excitation by EB.[31]
Fluorescence emission spectral titration is an efficient approach to evaluating the binding properties of DNA/BSA biomolecules. In general, the fluorescence of EB is quite weak in aqueous solution, but when it is bound to DNA, the fluorescence intensity rises. However, it is a well-known imperative intercalator and is more supportive in distinguishing the binding strength of non-fluorescence test substances. Also, the fluorescence emission spectra of the EB–DNA adduct were examined at 610 nm in the absence and presence of rising quantities of each test compound. When the complex concentration (0–240 μM) rises, the fluorescence intensity of the EB-bound DNA complex diminishes owing to the displacement of EB from CT-DNA. A notable reduction in the fluorescence emission intensity at 610 nm is observed (Fig. S26 ^† and Table 4). The photoelectron shift from DNA's guanine base to the excited states may be the cause of the frequency quenching in the emission of the test substance by DNA. […] Therefore, the competitive binding experiment can make use of EB as a fluorescent probe. […] This is further evidence that complexes (1–3) strongly bind intercalatively with DNA. The observed results agree well with the data from electronic absorption spectral measurements. Additionally, the experiment was extended to examine the binding properties between the test substance and BSA. BSA mostly contains three amino acid residues (tyrosine, tryptophan, and phenylalanine), which give it its inherent fluorescence. […] These two residues also have minimal quenching effects. Tryptophan in BSA fluoresces mostly because of a residue that is trapped inside a hydrophobic cavity. Therefore, it is crucial to model potential binding interactions with the metal complexes. […] The fluorescence intensity also reduces while the test substances (1–3) are steadily blended with the BSA solution, proving that complexes (1–3) interact with BSA via altering the protein's secondary structure, which also leads to an alteration in the tryptophan environment of BSA (Fig. S27 ^†). Furthermore, BSA structural similarities share 76% sequence identity with human serum albumin (HSA), the most prevalent protein in blood plasma that transports ions and proteins to cells and tissues. HSA is able to readily crystallize under the trivalent cations, but BSA has no ready crystallizing property. However, they consist of parallel physicochemical properties to each other.[74,75] Additionally, the Stern–Volmer eqn (12) and (13) were employed to analyze the data (Fig. S28 ^† and Table 4). Additionally, the kq values for DNA and BSA binding were acquired in the range of 1.1636–2.8863 × 10^12 and 2.6390–7.0774 × 10^12 mol^−1 s^−1, respectively. They are also much greater than the collision quenching constant value (2.0 × 10^10 mol^−1 s^−1). Therefore, it is assumed that the static quenching process was brought on by adduct construction between the test compounds and BSA rather than a dynamic collision. However, fluorescence spectroscopy is generally plagued by the inner filter effect (IFE), disturbing spectral analysis. The energizing ray is attenuated due to the highly concentrated solution sample. As a result, strong fluorescence is only seen on surfaces facing the excitation beam.

[2] = biological target: T1, BSA; type: binding, bovine; details: for Δλ (nm), blue shift of BSA band: 25 μM BSA, compound 0–25 μM; for Binding constant Kapp by BH method (Kb, BSA): 25 °C; for Gibb's free energy change of BSA binding: T = 298 K

| Structure (SMILES) | KSV (SV method I), BSA [1] | Kass (SV method II), BSA [1] | n, number of binding sites (SV method II), BSA [1] | Gibb's free energy change (SV method II), BSA [1] | Kq (SV method I), BSA [1] | P, ratio of fluorescence quantum efficiency, BSA [1] | Δλ (nm), blue shift of BSA band [2] | Binding constant Kapp by BH method (Kb, BSA) [2] | Gibb's free energy change of BSA binding [2] |
| --- | --- | --- | --- | --- | --- | --- | --- | --- | --- |
| [Mn+2].[O-]c1ccccc1N=Cc1ccc(N2CCOCC2)cc1.[O-]c1ccccc1N=Cc1ccc(N2CCOCC2)cc1.c1ccc(-c2ccccn2)nc1 [(1)] | 46510 M⁻¹ | 20050 M⁻¹ | 0.954 | -24.5 kJ/M | 4.651e+12 M⁻¹ s⁻¹ | 0.287 | 03 nm | 12429 M⁻¹ | -5.5827 kcal/mol |
| [Co+2].[O-]c1ccccc1N=Cc1ccc(N2CCOCC2)cc1.[O-]c1ccccc1N=Cc1ccc(N2CCOCC2)cc1.c1ccc(-c2ccccn2)nc1 [(2)] | 70740 M⁻¹ | 54550 M⁻¹ | 1.018 | -27.0 kJ/M | 7.074e+12 M⁻¹ s⁻¹ | 0.385 | 02 nm | 30937 M⁻¹ | -6.12271 kcal/mol |
| [Ni+2].[O-]c1ccccc1N=Cc1ccc(N2CCOCC2)cc1.[O-]c1ccccc1N=Cc1ccc(N2CCOCC2)cc1.c1ccc(-c2ccccn2)nc1 [(3)] | 48060 M⁻¹ | 52920 M⁻¹ | 1.051 | -26.9 kJ/M | 4.8055e+12 M⁻¹ s⁻¹ | 0.348 | 02 nm | 18374 M⁻¹ | -5.81417 kcal/mol |
| Oc1ccccc1N=Cc1ccc(N2CCOCC2)cc1 [(HL), 2-(4-morpholinobenzylideneamino)phenol] | 26390 M⁻¹ | 10620 M⁻¹ | 0.926 | -23.0 kJ/M | 2.639e+12 M⁻¹ s⁻¹ | 0.464 | 02 nm | 7556 M⁻¹ | -5.28791 kcal/mol |
